Like-named read-outs stand apart in the source and are kept apart here.
Legend:
H358 cells = assay: High-throughput proliferation (HTP) assay for H358 cells (CellTiter-Glo, 7 days); type: cell-based; details: Homo sapiens, NCI-H358, 168 h, read-out: H358 SMARCA2 IC50
Protocol: Thawing vials: H358 cells (ATCC #CRL-5807™) were thawed from a cryovial containing approximately 1.6×10^6 cells frozen in 70% RPMI 1640 medium, 20% HI-FBS and 10% DMSO. Cells were thawed by submerging the bottom half of the vial in a 37° C. water bath and gently flicked until almost thawed. The cells were removed and transferred into a 15 mL conical tube containing 9 mL RPMI 1640 medium+10% HI-FBS and then centrifuged 200×g for 4 min before drawing off the media without disturbing the cell pellet to remove the DMSO. The cells were resuspended again in 15 mL of RPMI 1640 fresh complete media+10% HI-FBS and grown up in a T75 flask at 37° C. with 5% CO2 Incubator. Viability was measured to obtain baseline.
Preparing frozen stock vials: Cell density was counted in a stock flask. The culture was transferred to a 50 mL conical tube and spun down to remove medium, and then resuspend at 1-2×10^6 cells/mL in complete medium containing 10% DMSO and transferred to a 1 mL per vial.
(§1) Routine subculture: Sub-confluent cultures (70-80%) were split every 4 days, seeding out at 1-2×10^6 cells/75 cm^2.
Day 0: Assay ready plates were prepared by dispensing 50 nL of compound stock or DMSO in the appropriate wells of 384-well white CulturPlates using Echo550. Using the Multiflo, H358 cells at 50 μL/well were plated in RPMI 1640 complete media+10% HI-FBS+1% pen/strep at cell density determined [20,000 cells/mL (1,000 cells/well)] from growth curve. Treated cells were inclubated at 37° C., 5% CO2, relative humidity >90% for 7 days. CellTiter-Glo (CTG) ATP detection reagent was prepared according to manufacturer's specifications. Cell assay plates were removed from incubator and bring to room temperature (RT).
Using the MultiDrop liquid handler, 30 μL of CTG were added per well. Plates were placed on the multidrop dispenser shake for 5 seconds at RT. Plates were incubated for 30 minutes in the dark at RT before measuring luminescence using the Envison2104.
Data analysis: Using the DMSO control wells as the 0% inhibition (high signal) control and the 10 uM Doxorubicin control wells as the 100% inhibition (low signal) control, percent inhibition EC50s (inflection point) and IC50s were calculated for the compound dose responses.

FL-SMARCA4 = FL-SMARCA4 (Homo sapiens, UniProt P51532); assay: SMARCA4 ATPase activity assay (ADP-Glo, chicken mononucleosome substrate)
Chain of FL-SMARCA4 (P51532 whole entry, canonical isoform): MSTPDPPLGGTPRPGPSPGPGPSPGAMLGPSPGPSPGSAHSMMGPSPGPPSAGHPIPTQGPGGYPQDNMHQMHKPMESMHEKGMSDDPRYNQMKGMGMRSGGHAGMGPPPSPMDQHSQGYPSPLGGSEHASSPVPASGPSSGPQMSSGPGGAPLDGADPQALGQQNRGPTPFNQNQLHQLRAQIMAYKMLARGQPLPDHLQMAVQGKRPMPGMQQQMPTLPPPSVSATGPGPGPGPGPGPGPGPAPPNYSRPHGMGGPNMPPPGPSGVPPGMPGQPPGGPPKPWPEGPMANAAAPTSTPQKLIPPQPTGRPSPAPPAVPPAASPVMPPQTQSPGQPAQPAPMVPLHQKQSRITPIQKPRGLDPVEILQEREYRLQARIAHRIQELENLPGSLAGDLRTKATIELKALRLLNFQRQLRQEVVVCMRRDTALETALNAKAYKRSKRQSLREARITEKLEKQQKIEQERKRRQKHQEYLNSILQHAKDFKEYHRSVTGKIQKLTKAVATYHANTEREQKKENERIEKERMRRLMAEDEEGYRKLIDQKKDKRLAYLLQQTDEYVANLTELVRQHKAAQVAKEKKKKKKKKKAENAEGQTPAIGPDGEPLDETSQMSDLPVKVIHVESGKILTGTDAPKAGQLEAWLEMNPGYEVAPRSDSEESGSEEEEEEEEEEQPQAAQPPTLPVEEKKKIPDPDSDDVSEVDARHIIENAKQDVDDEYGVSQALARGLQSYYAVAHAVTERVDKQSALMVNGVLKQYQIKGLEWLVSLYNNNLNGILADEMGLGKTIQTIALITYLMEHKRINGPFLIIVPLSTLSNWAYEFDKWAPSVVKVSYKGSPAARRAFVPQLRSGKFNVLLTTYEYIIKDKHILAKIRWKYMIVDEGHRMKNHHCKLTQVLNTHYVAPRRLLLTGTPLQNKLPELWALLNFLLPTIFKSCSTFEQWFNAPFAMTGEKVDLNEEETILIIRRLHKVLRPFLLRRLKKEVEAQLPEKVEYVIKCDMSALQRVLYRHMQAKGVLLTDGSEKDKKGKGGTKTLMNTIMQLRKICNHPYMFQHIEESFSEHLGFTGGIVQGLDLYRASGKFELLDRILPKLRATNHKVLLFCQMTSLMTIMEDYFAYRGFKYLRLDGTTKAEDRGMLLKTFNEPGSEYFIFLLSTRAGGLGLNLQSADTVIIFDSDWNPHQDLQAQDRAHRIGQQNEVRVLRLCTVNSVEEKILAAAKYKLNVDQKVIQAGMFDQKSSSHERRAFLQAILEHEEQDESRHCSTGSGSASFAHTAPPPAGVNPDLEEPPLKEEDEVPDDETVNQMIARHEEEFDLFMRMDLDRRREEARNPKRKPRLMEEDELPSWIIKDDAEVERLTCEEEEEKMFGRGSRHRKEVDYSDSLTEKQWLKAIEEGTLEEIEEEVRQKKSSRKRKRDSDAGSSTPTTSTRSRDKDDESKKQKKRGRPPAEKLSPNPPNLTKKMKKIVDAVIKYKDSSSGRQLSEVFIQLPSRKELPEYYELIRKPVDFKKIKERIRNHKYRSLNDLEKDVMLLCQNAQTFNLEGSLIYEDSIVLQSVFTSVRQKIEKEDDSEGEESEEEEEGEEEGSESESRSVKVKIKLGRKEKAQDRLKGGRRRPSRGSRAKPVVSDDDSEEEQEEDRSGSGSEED

[1] = molecular target: T1, FL-SMARCA2 (full-length human SMARCA2 isoform 1) (Homo sapiens, UniProt P51531); assay: SMARCA2 ATPase activity assay (ADP-Glo, chicken mononucleosome substrate); type: biochemical; details: ATPase assay, enzyme 5 nM, ATP 250 uM, chicken mononucleosome 10 nM, 30 min preincubation
T1 construct: FLAG tag (YKDDDDK) (C); made in house; host or cells: Sf21 insect cells (baculovirus, pFastBacI)
T1 sequence (P51531 with tags, fused parts or gaps): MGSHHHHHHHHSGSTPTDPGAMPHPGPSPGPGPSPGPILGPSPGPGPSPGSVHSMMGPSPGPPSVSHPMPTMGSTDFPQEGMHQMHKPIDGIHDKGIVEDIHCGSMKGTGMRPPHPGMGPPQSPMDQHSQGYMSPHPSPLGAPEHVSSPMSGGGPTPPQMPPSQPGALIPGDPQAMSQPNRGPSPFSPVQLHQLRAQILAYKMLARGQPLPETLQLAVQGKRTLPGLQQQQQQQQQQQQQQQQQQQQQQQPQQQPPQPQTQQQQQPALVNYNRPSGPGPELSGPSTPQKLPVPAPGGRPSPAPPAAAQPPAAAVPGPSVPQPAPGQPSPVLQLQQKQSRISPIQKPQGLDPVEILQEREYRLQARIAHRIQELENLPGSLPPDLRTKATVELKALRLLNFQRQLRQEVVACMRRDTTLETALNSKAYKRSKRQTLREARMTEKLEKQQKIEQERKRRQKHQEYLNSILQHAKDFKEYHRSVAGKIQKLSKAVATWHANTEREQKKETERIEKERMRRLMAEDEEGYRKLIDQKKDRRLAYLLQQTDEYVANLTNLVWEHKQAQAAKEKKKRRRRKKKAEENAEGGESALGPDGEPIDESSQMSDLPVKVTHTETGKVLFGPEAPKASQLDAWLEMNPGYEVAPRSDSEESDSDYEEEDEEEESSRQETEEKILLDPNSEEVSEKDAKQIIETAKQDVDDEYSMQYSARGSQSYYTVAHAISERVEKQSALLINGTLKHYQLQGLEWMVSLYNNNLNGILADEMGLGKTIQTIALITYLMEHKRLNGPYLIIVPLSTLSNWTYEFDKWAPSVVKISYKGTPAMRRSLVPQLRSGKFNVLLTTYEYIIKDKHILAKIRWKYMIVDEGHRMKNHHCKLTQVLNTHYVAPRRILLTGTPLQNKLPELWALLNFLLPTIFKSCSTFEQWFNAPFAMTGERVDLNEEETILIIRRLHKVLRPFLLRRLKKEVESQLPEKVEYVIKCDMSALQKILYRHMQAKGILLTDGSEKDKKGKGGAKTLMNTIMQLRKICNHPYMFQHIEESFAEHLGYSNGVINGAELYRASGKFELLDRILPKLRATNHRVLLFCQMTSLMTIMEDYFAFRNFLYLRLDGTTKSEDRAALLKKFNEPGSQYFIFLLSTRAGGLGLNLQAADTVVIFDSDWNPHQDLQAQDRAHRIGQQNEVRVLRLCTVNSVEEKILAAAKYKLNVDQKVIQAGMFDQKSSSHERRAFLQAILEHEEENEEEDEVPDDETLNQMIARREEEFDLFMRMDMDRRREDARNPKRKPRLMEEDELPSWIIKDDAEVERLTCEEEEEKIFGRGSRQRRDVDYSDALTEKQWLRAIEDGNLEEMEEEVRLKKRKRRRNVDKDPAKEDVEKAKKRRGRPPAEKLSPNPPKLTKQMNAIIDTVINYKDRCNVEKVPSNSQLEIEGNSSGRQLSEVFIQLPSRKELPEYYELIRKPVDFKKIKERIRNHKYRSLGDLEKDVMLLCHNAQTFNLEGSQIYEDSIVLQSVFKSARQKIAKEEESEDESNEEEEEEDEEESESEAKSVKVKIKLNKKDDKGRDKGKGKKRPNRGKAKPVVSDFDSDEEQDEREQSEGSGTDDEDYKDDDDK

A549 cells = assay: High-throughput proliferation (HTP) assay for A549 cells (CellTiter-Glo, 7 days); type: cell-based; details: Homo sapiens, 168 h, read-out: A549 SMARCA2 IC50
Protocol: Thawing vials: A549 cells (ATCC #CCL-185™) were thawed from a cryovial containing approximately 1.6×10^6 cells frozen in 70% F12K medium, 20% HI-FBS and 10% DMSO. Cells were thawed by submerging the bottom half of the vial in a 37° C. water bath and gently flicked until almost thawed. The cells were transferred into a 15 mL conical tube containing 9 mL of F12K medium+10% HI-FBS and then centrifuged at 200×g for 4 min before drawing off the media without disturbing the cell pellet in order to remove the DMSO. The cells were resuspended again in 15 mL of F12K fresh complete media+10% HI-FBS and grown up in a T75 flask at 37° C. with 5% CO2 Incubator. Viability was measured to obtain baseline.
Frozen stock vials preparation: The cell culture was transferred to a 50 mL conical tube, spun down to remove medium, and resuspended at 1-2×10^6 cells/mL in complete medium containing 10% DMSO. The culture was then stored for 24 hours at −80 degree C., (with the initial rate of freezing is −1 degree C. per minute in a freezing container), then transferred and stored in liquid nitrogen.
as §1
Day 0: Assay ready plates were prepared by dispensing 50 nL of compound or DMSO in the appropriate wells of 384-well white CulturPlates using Echo550. Using the Multiflo, A549 cells were plated at 50 μL/well in F12K complete media+10% HI-FBS+1% pen/strep at cell density determined [1,250 cells/mL (62.5 cells/well)] from growth curve.
Treated cells were incubated at 37° C., 5% CO2, relative humidity >90% for 7 days. CellTiter-Glo (CTG) ATP detection reagent was prepared according to manufacturer's specifications. Cell assay plates were removed from the incubator and brought to room temperature (RT). Using the MultiDrop liquid handler, 30 μL of CTG were added per well. Plates were placed on the multidrop dispenser shake for 5 seconds at room temperature (RT). Plates were incubated for 30 minutes in the dark at RT before measuring luminescence using the Envison2104.
Data analysis: Using the DMSO control wells as the 0% inhibition (high signal) control and the 10 μM Doxorubicin control wells as the 100% inhibition (low signal) control, percent inhibition EC50s (inflection point) and IC50 s were calculated for the compound dose responses.

[2] = Table 3d.1, read-out: FL-SMARCA2 IC>50
[3] = FL-SMARCA4 IC>50, Table 3c.2, ATPase assay, enzyme 5 nM, ATP 250 uM, chicken mononucleosome 10 nM, 30 min preincubation

| IC50 (H358 cells) | IC50 (FL-SMARCA4; FL-SMARCA4 IC50) | IC50 [1, 2] | IC50 (A549 cells) | IC50 (FL-SMARCA4; [3]) | IC50 ([1]; Table 3c.1) | SMILES |
| --- | --- | --- | --- | --- | --- | --- |
| > 10 µM | 0.0571 µM | 0.0225 µM | > 10 µM | – | – | O=C1C[C@@H](C#Cc2cc(C(=O)Nc3cc(F)c(=O)n(CC(F)F)c3)sc2Cl)CCN1 [Compound 62d] |
| > 10 µM | 0.518 µM | 0.165 µM | > 10 µM | – | – | O=C1C[C@H](C#Cc2cc(C(=O)Nc3cc(F)c(=O)n(CC(F)F)c3)sc2Cl)CCN1 [Compound 63d] |
| > 10 µM | 0.205 µM | 0.0725 µM | 2.41 µM | – | – | O=C(Nc1cc(F)c(=O)n(CC(F)F)c1)c1cc(C#CC2CCCOC2)c(Cl)s1 (stereo not shown) [Compound 68d] |
| 9.85 µM | 4.75 µM | 1.69 µM | 1.96 µM | – | – | O=C(Nc1cc(F)c(=O)n(CC(F)F)c1)c1cc(C#CC(=O)N2CCCC2)c(Cl)s1 [Compound 70d] |
| 4.09 µM | 1.26 µM | 0.536 µM | 2.38 µM | – | – | CN(C)C(=O)C#Cc1cc(C(=O)Nc2cc(F)c(=O)n(CC(F)F)c2)sc1Cl [Compound 71d] |
| > 10 µM | 1.31 µM | 0.481 µM | 5.76 µM | – | – | CNC(=O)C#Cc1cc(C(=O)Nc2cc(F)c(=O)n(CC(F)F)c2)sc1Cl [Compound 72d] |
| > 10 µM | – | – | 6.01 µM | 2.93 µM | 0.847 µM | O=C(Nc1cc(F)c(=O)n(CC(F)F)c1)c1cc(C#CC2COC2)cs1 [Compound 73c] |
| > 10 µM | 0.0327 µM | 0.0109 µM | 1.81 µM | – | – | O=C(Nc1cc(F)c(=O)n(CC(F)F)c1)c1cc(C#C[C@H]2C[C@H](O)C2)c(Cl)s1 [Compound 73d] |
| 2.44 µM | 1.01 µM | 0.462 µM | 1.65 µM | – | – | O=C(Nc1cc(F)c(=O)n(CC(F)F)c1)c1cc(C#CC(F)(F)F)c(Cl)s1 [Compound 74d] |
| > 10 µM | 0.463 µM | 0.16 µM | 7.44 µM | – | – | O=C(Nc1cc(F)c(=O)n(CC(F)F)c1)c1cc(C#CC2CCO2)c(Cl)s1 (stereo not shown) [Compound 77d] |
| > 10 µM | – | – | 1.57 µM | 0.256 µM | 0.0983 µM | O=C(Nc1cc(F)c(=O)n(CC(F)F)c1)c1cc(C#C[C@H]2CCOC2)c(Cl)s1 [Compound 78c] |
| > 10 µM | – | – | 1.29 µM | 0.143 µM | 0.0568 µM | O=C(Nc1cc(F)c(=O)n(CC(F)F)c1)c1cc(C#C[C@@H]2CCOC2)c(Cl)s1 [Compound 79c] |
| > 10 µM | – | – | 3.98 µM | 0.494 µM | 0.161 µM | O=C(Nc1cc(F)c(=O)n(CC(F)F)c1)c1cc(C#CC2COC2)c(C(F)F)s1 [Compound 80c] |

Continued, compound first:

| SMILES | IC50 (H358 cells) | IC50 (FL-SMARCA4; FL-SMARCA4 IC50) | IC50 [1, 2] | IC50 (A549 cells) | IC50 (FL-SMARCA4; [3]) | IC50 ([1]; Table 3c.1) |
| --- | --- | --- | --- | --- | --- | --- |
| Cc1cc(C#Cc2cc(C(=O)Nc3cc(F)c(=O)n(CC(F)F)c3)sc2Cl)on1 [Compound 63c] | > 10 µM | – | – | 2.29 µM | 0.1 µM | 0.0333 µM |
| N#Cc1cncc(C#Cc2cc(C(=O)Nc3cc(F)c(=O)n(CC(F)F)c3)sc2Cl)c1 [Compound 64d] | > 10 µM | 0.498 µM | 0.165 µM | 3.81 µM | – | – |
| O=C(Nc1cc(F)c(=O)n(CC(F)F)c1)c1cc(C#Cc2cccnc2)c(C(F)(F)F)s1 [Compound 65c] | > 10 µM | – | – | 4.32 µM | 0.154 µM | 0.0337 µM |
| Cn1ccc(C#Cc2cc(C(=O)Nc3cc(F)c(=O)n(CC(F)F)c3)sc2Cl)cc1=O [Compound 65d] | > 10 µM | 7.79 µM | 2.36 µM | > 10 µM | – | – |
| CN1CCn2c(C#Cc3cc(C(=O)Nc4cc(F)c(=O)n(CC(F)F)c4)sc3Cl)cnc2C1 [Compound 66c] | > 10 µM | – | – | > 10 µM | 0.772 µM | 0.236 µM |
| Cn1cnc(C#Cc2cc(C(=O)Nc3cc(F)c(=O)n(CC(F)F)c3)sc2Cl)n1 [Compound 67c] | > 10 µM | – | – | > 10 µM | 0.807 µM | 0.371 µM |
| CNC(=O)c1ncc(C#Cc2cc(C(=O)Nc3cc(F)c(=O)n(CC(F)F)c3)sc2Cl)o1 [Compound 67d] | > 10 µM | 0.0372 µM | 0.0146 µM | 2.12 µM | – | – |
| NC(=O)c1ccc(C#Cc2cc(C(=O)Nc3cc(F)c(=O)n(CC(F)F)c3)sc2Cl)cc1 [Compound 68c] | > 10 µM | – | – | 5.91 µM | 0.121 µM | 0.0671 µM |
| N#Cc1cc(C(=O)Nc2cc(F)c(=O)n(CC(F)F)c2)sc1C(F)F [Compound 69d] | > 10 µM | 0.12 µM | 0.0266 µM | 2.04 µM | – | – |
| Cc1cnc(C#Cc2cc(C(=O)Nc3cc(F)c(=O)n(CC(F)F)c3)sc2Cl)s1 [Compound 70c] | 9.16 µM | – | – | 6.25 µM | 0.385 µM | 0.26 µM |
| Cc1cnc(C#Cc2cc(C(=O)Nc3cc(F)c(=O)n(CC(F)F)c3)sc2Cl)o1 [Compound 71c] | > 10 µM | – | – | 1.95 µM | 0.304 µM | 0.092 µM |
| O=C(Nc1ccc(=O)n(CC(F)F)c1)c1cc(Cl)c(C(F)(F)F)s1 [Compound 72c] | > 10 µM | – | – | 4.5 µM | 1.55 µM | 0.21 µM |
| CN(C)C(=O)c1cccc(C#Cc2cc(C(=O)Nc3cc(F)c(=O)n(CC(F)F)c3)sc2Cl)c1 [Compound 74c] | > 10 µM | – | – | 3.93 µM | 0.245 µM | 0.0675 µM |
| CC(=O)Nc1cccc(C#Cc2cc(C(=O)Nc3cc(F)c(=O)n(CC(F)F)c3)sc2Cl)c1 [Compound 75c] | > 10 µM | – | – | 1.78 µM | 0.0545 µM | 0.02 µM |
| Cc1cc(NC(=O)c2cc(C#N)c(C(F)(F)F)s2)cn(CC(F)F)c1=O [Compound 75d] | > 10 µM | 11.3 µM | 0.948 µM | > 10 µM | – | – |
| N#Cc1cc(C(=O)Nc2cc(C(F)F)c(=O)n(CC(F)F)c2)sc1C(F)(F)F [Compound 76d] | > 10 µM | 10.2 µM | 1.31 µM | > 10 µM | – | – |
| N#Cc1cc(C(=O)Nc2cc(F)c(=O)n(CC(F)F)c2)sc1C(F)(F)Cl [Compound 78d] | > 10 µM | 0.377 µM | 0.0575 µM | 6.37 µM | – | – |
| Cc1cc(C(=O)Nc2cc(F)c(=O)n(CC(F)F)c2)sc1C(F)(F)F [Compound 80d] | > 10 µM | 1.14 µM | 0.224 µM | > 10 µM | – | – |

Source: patent US20220356174A1, “PYRIDIN-2-ONE COMPOUNDS USEFUL AS SMARCA2 ANTAGONISTS” (Epizyme, Inc., priority 2018, published 2022)
